From patent publication US20200368322A1, “METHODS OF IDENTIFYING AND USING AGENTS FOR TREATING DISEASES ASSOCIATED WITH INTESTINAL BARRIER DYSFUNCTION” (Yeda Research and Development Co. Ltd., priority 2018, published 2020) come the findings set out here.

One assay deals with Citrobacter rodentium. Put plainly: Citrobacter rodentium infection (bioluminescence, tissue CFU), Example 1. Type of assay: in vivo, mouse. Conditions: for enhanced C. rodentium growth and pathogenic translocation / host defense against C. rodentium: STZ-treated mice given the agent (insulin 0.25 U per day; 2-DG i.p. twice daily 5 mg). How it is done: (§1) To induce hyperglycemia, streptozotocin (STZ, Sigma-Aldrich) was diluted freshly in PBS and injected i.p. at 100 mg/kg at two consecutive days. Control mice were injected with PBS. Serum glucose measurements were performed using glucose strips (Perrigo). Hyperglycemic mice were used for further experimentation 2-3 weeks after STZ injection). For continuous insulin administration, ALZET osmotic pumps were used. Pumps were implanted subcutaneously in the back of the mice for 4 weeks. Insulin was delivered at 0.25 U/day. 2-deoxyglucose (2-DG) was injected i.p. twice daily at 5 mg per injection as previously described (47). Injections were performed for 10 consecutive days. Leptin antagonist was administered daily by intraperitoneal injection of 25 mg/kg as previously described (18).
Mice were infected by oral gavage with 200 μl of an overnight culture of LB containing approximately 1×10^9 colony-forming units (CFU) of a kanamycin-resistant, luciferase-expressing derivative of C. rodentium DBS100 (ICC180) as previously described (16). For in vivo bioluminescent imaging, mice were anesthetized with Ketamine/Xylazine. Bioluminescence was quantified using an IVIS2000 instrument and Living Image software (Perkin Elmer). For ex vivo luminescence analysis, colons were resected, extensively washed from all fecal matter and immediately imaged. For CFU counts, tissues were collected, weighed and homogenized in 1 ml of sterile PBS. Tissue homogenates were serially diluted in PBS and plated on to LB kanamycin plates, incubated overnight at 37° C., and bacterial colonies were enumerated the following day, normalizing them to the tissue weight.

A short description of assay [1]: Serum glucose measurement. The assay is classed as in vivo, mouse. On the procedure: as §1
The test system of assay [2] is intestinal epithelial adherence junctions. The assay can be described thus: Immunofluorescence staining of colon junctions (E-cadherin, ZO-1). Type of assay: in vivo, mouse. On the procedure: (§2) Colon samples were extensively washed and fixed and 4% paraformaldehyde. Samples were washed, paraffin-embedded and sectioned. Paraffin sections were de-paraffinized and antigen-retrieved in 10 mM sodium citrate, pH 6. Samples were incubated in PBS containing 20% (v/v) normal horse serum and 0.2% (v/v) Triton X-100 for 1 h; and then incubated over-night with rabbit anti-ZO-1 (Invitrogen 40-2200) primary antibody or rabbit anti E-cadherin (Cell Signaling 24E10). Sections were washed and incubated for 1 hour with alexa 488-conjugated donkey anti Rabbit antibody. Alternatively, sections were stained with Ki67 to indicate proliferating cells.

Assay [3] has as its system colonic epithelial barrier. The assay can be described thus: Trans-epithelial flux (Ussing chamber, FITC-dextran). Type of assay: in vivo, mouse. As to conditions: STZ-treated mice, steady-state conditions. On the procedure: On the day of the assay, 4 kDa fluorescein isothiocyanate (FITC)-dextran was dissolved in phosphate buffered saline (PBS) to a concentration of 80 mg/ml. Mice were fasted for 4 hours prior to gavage with 150 μl dextran. Mice were anesthetized 3 hours following gavage and blood was collected, centrifuged at 1,000×g for 12 min at 4° C. Serum was collected and fluorescence was quantified at an excitation wavelength of 485 nm and emission wavelength of 535 nm.
Epithelial resistance was measured using an Ussing chamber system (Warner Instruments P2300) according to the manufacturer's instructions. In brief, EasyMount chambers were calibrated, colonic tissue was excised from mice and immediately mounted, and voltage clamp recordings were performed. Tissues were maintained at 37° C. in physiological salt solution throughout the duration of the recording.

For another assay, the system named is Salmonella Typhimurium. The assay can be described thus: Salmonella Typhimurium infection. The assay is classed as in vivo, mouse. Conditions: STZ-treated mice, oral infection. How it is done:
For oral infections, mice were pretreated with 50 mg/ml streptomycin one day prior to oral gavage of 10^8 CFU of SPI-II-deficient Salmonella Typhimurium (49). For systemic infections, mice were injected 10^4 CFU of Salmonella Typhimurium by intraperitoneal injection as previously described (50). One week after infection, colonization was assessed by bacterial plating on LB streptomycin plates, incubated overnight at 37° C., and bacterial colonies were enumerated the following day, normalizing them to the tissue weight.

The test system of assay [4] is intestinal epithelial cells. The assay can be described thus: Epithelial turnover (Ki67 staining, cell viability by flow cytometry). Conditions: STZ-treated mice vs controls. Type of assay: in vivo, mouse. On the procedure: as §2
For viability measurements, isolated intestinal epithelial cells were stained with EpCAM, CD45 and propidium iodide. Cells were analyzed on a BD-LSRFortessa cytometer. All antibodies were obtained from Biolegend.

Assay [5] in a line: Intestinal inflammatory state (H&E staining, colonic cytokine gene expression). Type of assay: in vivo, mouse. Conditions: STZ-treated mice vs controls.
The subject of a further assay is Caco-2 cells. The assay can be described thus: In vitro barrier assessment: ZO-1 staining and junction tortuosity of Caco-2 cells treated with glucose. Type of assay: cell-based. Conditions: glucose plus 2-DG. How it is done: Caco-2 cells were purchased from ATCC. Cells were routinely grown in regular tissue culture medium (DMEM, 10% FCS, penicillin/streptomycin, GlutaMAX, 1 g/l glucose). For experiments, cells were seeded onto 96-well glass-bottom plates coated with fibronectin 25 μg/ml 70 000 cells/well and allowed to grow for 48 hours to form confluent monolayer before treatment with indicated concentration of glucose for indicated time period. […] Tight junctions labeling was performed with primary anti-ZO-1 mouse monoclonal antibodies (BD Transduction Laboratories) 1.25 μg/ml and secondary Alexa Fluor 488 goat anti-mouse antibodies (Invitrogen) 10 μg/ml. […] Cell images were segmented using Morphological Segmentation ImageJ plug-in and junction tortuosity was calculated as a ratio between junction length and Euclidian distance between its ends.
Hyperglycemia Reprograms Intestinal Epithelial Cells To determine whether glucose acted directly on intestinal epithelial cells to affect barrier function, an in vitro system of cultured intestinal epithelial (Caco-2) cells was used. […] Tight junction integrity was analyzed through automated high-throughput analysis of ZO-1 staining patterns. […] Global reprogramming of the epithelial transcriptome was detected in hyperglycemic mice (FIG. 41), in which more than 1,000 genes were differentially expressed compared to vehicle-treated controls (FIG. 4J). […]

In assay [6] the test system is microbial pattern recognition receptor (PRR) ligands. Put plainly: Quantification of microbial products at systemic sites (PRR reporter cell lines). The assay is classed as in vivo, mouse. As to conditions: STZ-treated mice given the agent (insulin 0.25 U per day; 2-DG i.p. twice daily 5 mg). On the procedure: as §1, with “(18). The following PRR reporter cell lines were obtained from Invivogen (HEK-Blue TLR and NLR reporter cell lines): TLR2, TLR3, TLR4, TLR5, TLR7, TLR9, NOD1, NOD2. Extracts from spleen, liver, and serum were homogenized and added to reporter cell lines incubated with HEK-Blue detection medium (Invivogen) according to the manufacturer's instructions.” for “(18).”

Assay [7] deals with intestinal epithelial cells. Put plainly: RNA-sequencing of purified intestinal epithelial cells. Type of assay: in vivo, mouse. As to conditions: STZ-treated mice, 2-DG administration. On the procedure: Intestinal tissue was excised from mice, thoroughly rinsed with ice-cold PBS to clean the tissue from fecal matter, and opened longitudinally. The tissue was then cut into pieces of 1 cm length and incubated in HBSS containing 2 mM EDTA and 1 mM DTT at 37° C. for 30 mins while shaking at 130 rpm. Epithelial cells were collected, filtered, centrifuged, and subsequently stained with anti-EpCAM and anti-CD45 antibodies (Biolegend) for 30 mins on ice. Cells were then washed, resuspended and sorted into lysis/binding buffer (Life Technologies) using a FACS-FUSION cell sorter (BD).
10^4 cells from each population were sorted into 80 μl of lysis/binding buffer (Life Technologies). mRNA was captured with 12 μl of Dynabeads oligo(dT) (Life Technologies), washed, and eluted at 70° C. with 10 μl of 10 mM Tris-Cl (pH 7.5). A derivation of MARS-seq was used as described (51). An average of 1 million reads was sequenced per library (Illumina NextSeq). The reads were aligned to the mouse reference genome (NCBI 37, mm9) using TopHat v2.0.10 (52) with default parameters. Expression levels were calculated and normalized using ESAT software (garberlabdotumassmeddotedu/software/esat). Duplicate reads were filtered if they aligned to the same base and had identical UMIs. […]

The next assay has as its system intestinal microbiota. The assay can be described thus: Taxonomic microbiota analysis (16S rDNA sequencing). Type of assay: in vivo, mouse. Conditions: hyperglycemic (STZ-treated) mice, insulin treatment. On the procedure: Frozen fecal samples were processed for DNA isolation using the MoBio PowerSoil kit according to the manufacturer's instructions. For the 16S rRNA gene PCR amplification, 1 ng of the purified fecal DNA was used for PCR amplification. Amplicons spanning the variable region V3/4 of the 16S rRNA gene were generated by using primers: Fwd 5′-[…]-3′ (SEQ ID NO: 1), Rev 5′-[…]-3′ (SEQ ID NO: 2). The reactions were subsequently pooled and cleaned (PCR clean kit, Promega), and the PCR products were then sequenced on an Illumina MiSeq with 500 bp paired-end reads. The reads were then processed using the QIIME analysis pipeline as described (55, 56). In brief, fasta quality files and a mapping file indicating the barcode sequence corresponding to each sample were used as inputs, reads were split by samples according to the barcode, taxonomical classification was performed using the RDP-classifier, and an OTU table was created. Closed-reference OTU mapping was employed using the Greengenes database. Rarefaction was used to exclude samples with insufficient count of reads per sample. Sequences sharing 97% nucleotide sequence identity in the 16S region were binned into operational taxonomic units (97% ID OTUs). For beta-diversity, unweighted UniFrac measurements were plotted according to the two principal coordinates based on 10,000 reads per sample. […]

Setting [8] is: mice treated with the agent alone.

Turning to `CN(N=O)C(=O)N[C@H]1C(O)O[C@H](CO)[C@@H](O)[C@@H]1O` (mixture of isomers) [STZ, streptozotocin], the “C. rodentium infection and systemic spread” value in the assay on Citrobacter rodentium (setting [8]) was “severe C. rodentium infection and systemic translocation”. Further, the blood glucose levels result in [1] (setting [8]) is on record as “hyperglycemia was induced”. Further, in [2] (STZ-treated mice, steady-state conditions), the “intestinal epithelial adherence junctions” value was “dysfunction of intestinal epithelial adherence junctions”. Also, the trans-epithelial flux entry in assay [3] was “enhanced trans-epithelial flux”. Also, in the assay with Salmonella Typhimurium, the “intestinal luminal growth of Salmonella” value was “comparable to vehicle-treated controls” and the “systemic colonization by Salmonella” value is recorded as “enhanced systemic colonization”. The “epithelial proliferation or cell death” value in [4] is “not affected”. Further, in assay [5], the “inflammatory state in the intestine” value is given as “did not provoke an overt inflammatory state”.
`O=CC[C@@H](O)[C@H](O)[C@H](O)CO` [2-DG, 2-deoxyglucose]: in the assay with Caco-2 cells, the “glucose-induced barrier aberrations in vitro” value is recorded as “rescued glucose-induced barrier aberrations in vitro in a dose-dependent manner”. Further, the “detectable pathogen load in the mesenteric lymph nodes, spleens and livers” value in the assay on Citrobacter rodentium (C. rodentium-infected db/db mice, 2-DG treatment) is given as “strongly reduced”. Moreover, the “bacterial growth in the intestinal lumen” value with Citrobacter rodentium (STZ-treated C. rodentium-infected mice, 2-DG treatment) is given as “unaffected”. Further, the “enhanced C. rodentium growth and pathogenic translocation / host defense against C. rodentium” value in the assay with Citrobacter rodentium is on record as “restored host defense against C. rodentium”. In assay [6], the “systemic dissemination of microbial products” value is “prevented the systemic dissemination of microbial products”. In addition, in assay [7], the “transcriptional reprogramming of the epithelium” value is “blocked transcriptional reprogramming in STZ-treated mice”.
For the molecule insulin, in the assay on Citrobacter rodentium, the “enhanced C. rodentium growth and pathogenic translocation / host defense against C. rodentium” value is on record as “prevented”. In addition, the “systemic dissemination of microbial products” value in assay [6] was “prevented”. Further, in assay [1] (STZ-treated mice, 0.25 U per day insulin via pumps for 4 weeks), the serum glucose levels result is reported as “restored normoglycemic levels”. In addition, the “loss of adherence junction integrity” value in assay [2] (STZ-treated mice given the agent) was “prevented”. Besides, the “taxonomic change in the configuration of the intestinal microbiota” value with intestinal microbiota was “corrected”.
